From patent US12428396B2, “Fused pyridine ring derivative, preparation method therefor, and pharmaceutical use thereof” (priority 2019, dated 2025)

Tests used:
HIV-1 capsid protein = target: T1, HIV-1 capsid protein (Human immunodeficiency virus type 1 group M subtype B, UniProt P12493); assay: In vitro polymerization of HIV-1 capsid protein (His-CA/GST-CA, Eu cryptate/XL665 energy transfer); type: biochemical, HIV-1 NL4-3; conditions: for Imax: 37° C., 2 h incubation
T1 construct: made in house; host or cells: E. coli (pET30 vector)
Source text: • 1. MAb Anti GST-Eu cryptate (Cisbio) • 2. MAb Anti 6HIS-XL665 (Cisbio) • 3. His tag HIV-1 capsid protein (hereinafter referred to as His-CA) • 4. GST tag HIV-1 capsid protein (hereinafter referred to as GST-CA) • 5. 384-well unbound surface microplate, white (Corning) • 6. Microplate reader (BMG)
The HIV-1 capsid proteins aggregate spontaneously in high-salt solutions. Capsid protein sequences derived from HIV-1 NL4-3 strains (GeneBank AF324493.2) were separately tagged with 6His tag and GST tag sequences at the C-terminus, cloned into pET30 vectors, and expressed and separately tagged for expression in E. coli system and purified. His-CA and GST-CA were mixed at high-salt concentrations, and the level of polymerization of capsid proteins was detected using GST antibody labeled with Eu3+-Cryptate (energy donor) and His antibody labeled with XL665 (energy acceptor). Since the excitation spectrum of Eu3+-Cryptate overlapped with the excitation spectrum of XL665, when the capsid proteins with these two tags formed a poly complex, the energy donor and the energy acceptor could be drawn to a sufficiently close distance, the energy donor released part of the captured energy under the excitation of an external light source (such as a xenon lamp or a laser), with the emission wavelength being 620 nM, part of the resonance was transferred to the energy acceptor to excite the energy acceptor, with the emission wavelength being 665 nM, and an optical signal was generated, the signal intensity of which was in direct proportion to the degree of polymerization of the tag proteins.
His-CA was diluted to 2 μM in a clean tube with protein diluent (50 mM Tris-HCl, pH 8.0, 50 mM NaCl, 0.4 mM MgCl2, 0.05% Triton X-100, 2% glycerol) while MAb Anti 6HIS-XL665 at a final concentration of 260 nM was added; GST-CA was diluted to 20 nM with protein diluent in another clean tube while MAb Anti GST-Eu cryptate at a final concentration of 3.33 nM was added and incubated on ice for half an hour. Compounds were first formulated into a concentration of 20 mM with DMSO, then diluted to a first concentration of 2 mM with DMSO and serially 5-fold diluted to the 8th concentration. Control wells were set and added with DMSO, and serially-diluted compounds were then 20-fold diluted with protein diluent to 10-fold working concentrations. Preparation of capsid protein polymerization liquid at 2-fold concentration: 50 mM Tris-HCl, pH 8.0, 1 M NaCl, 800 mM KF; to a pre-cooled white round-bottomed 384-well plate were added 4 uL of His-CA-His antibody mixture, 4 uL of GST-CA-GST antibody mixture, 2 uL of the compounds at 10-fold concentration and 10 uL of capsid protein polymerization reaction liquid at 2-fold concentration, the plate was sealed with a light-shielding sealing plate membrane after uniformly mixing, and the reaction plate was placed in a 37° C. incubator for incubation for 2 h. After incubation, the samples were excited with an excitation light at 337 nM, and signal values at 620 nM and 665 nM were collected for detection, wherein Ratio values=(665 nM/620 nM signal)×10000 was calculated according to the signal values. IC50 values for compounds were calculated using Graphpad Prism software based on each concentration of the compounds and the corresponding Ratio values.

[1] = Thermodynamic stability test of atropisomerism (LC-MS); type: physicochemical
Experimental: Agilent 1200 DAD model LC-MS; column: waters sunfire C18, 4.6×75 mm, 3.5 μm; mobile phase: water (0.1% trifluoroacetic acid):acetonitrile (0.1% trifluoroacetic acid).
The compounds of Examples 1-1a, 1-1b were atropisomers of each other and had different retention times in the LC-MS spectra, and the tautomerism of the atropisomers could be detected by LC-MS.
Compound 1-1a (1.5 mg) was dissolved in acetonitrile (1.0 mL), and the reaction solution was heated at 40° C. for 1.0 h, and the change in purity of compound 1-1a was detected by LC-MS. Compound 1-1a (1.5 mg) was dissolved in dimethyl sulfoxide (1.0 mL), and the reaction solution was heated at 120° C. for 3.0 h, and the change in purity of compound 1-1a was detected by LC-MS.
The same procedure was used to test the change in purity of compound 1-1b at 40° C. and 120° C.
The compounds of Examples 5-1, 5-2 were atropisomers of each other and had different retention times in the LC-MS spectra, and the tautomerism of the atropisomers could be detected by LC-MS.
Compound 5-1 (1.0 mg) was dissolved in DMSO (1.0 mL), and the reaction solution was heated at 37° C. and 120° C. for 3.0 h, respectively, and the change in purity of compound 5-1 was detected by LC-MS.

Row | SMILES | IC50 (HIV-1 capsid protein) [nM] | Imax (HIV-1 capsid protein) [%] | atropisomer stability (change in purity by LC-MS) ([1]; heated at 37° C. for 3.0 h in DMSO) | atropisomer stability (change in purity by LC-MS) ([1]; heated at 120° C. for 3.0 h in dimethyl sulfoxide)
1 | CC(C)(C#Cc1nc([C@H](Cc2cc(F)cc(F)c2)NC(=O)Cn2nc(C(F)(F)F)c3c2C(F)(F)[C@@H]2C[C@H]32)c(-c2ccc(Cl)c3c(NS(=O)(=O)C4CC4)nn(CC(F)(F)F)c23)c2c1CCC2)S(C)(=O)=O (atropisomer, axis not shown; (aR)) [Example 2, N—((S)-1-((R)-4-(4-chloro-3-(cyclopropylsulfonamide)-1-(2,2,2-trifluoroethyl)-1H-indazol-7-yl)-1-(3-methyl-3-(methylsulfonyl)but-1-yn-1-yl)-6,7-dihydro-5H-cyclopenta[c]pyridin-3-yl)-2-(3,5-difluorophenyl)ethyl)-2-((3bS,4aR)-5,5-difluoro-3-(trifluoromethyl)-3 b,4,4a,5-tetrahydro-1H-cyclopropa[3,4]cyclopenta[1,2-c]pyrazol-1-yl)acetamide] | 19 | 100 | – | –
2 | CC(C)(C#Cc1nc([C@H](Cc2cc(F)cc(F)c2)NC(=O)Cn2nc(C(F)(F)F)c3c2C(F)(F)[C@@H]2C[C@H]32)c(-c2ccc(Cl)c3c(NS(C)(=O)=O)nn(CC(F)(F)F)c23)c2c1CCC2)S(=O)(=O)C1CC1 (atropisomer, axis not shown; (aR)) [Example 3, N—((S)-1-((R)-4-(4-chloro-3-(methanesulfonamido)-1-(2,2,2-trifluoroethyl)-1H-indazol-7-yl)-1-(3-(cyclopropylsulfonyl)-3-methyl-but-1-yn-1-yl)-6,7-dihydro-5H-cyclopenta[c]pyridin-3-yl)-2-(3,5-difluorophenyl)ethyl)-2-((3bS,4aR)-5,5-difluoro-3-(trifluoromethyl)-3b,4,4a,5-tetrahydro-1H-cyclopropa[3,4]cyclopenta[1,2-c]pyrazol-1-yl)acetamide] | 24 | 98 | – | –
3 | CC(C)(C#Cc1nc([C@H](Cc2cc(F)cc(F)c2)NC(=O)Cn2nc(C(F)(F)F)c3c2C(F)(F)[C@@H]2C[C@H]32)c(-c2ccc(Cl)c3c(NS(=O)(=O)C4CC4)nn(CC(F)(F)F)c23)c2c1CCC2)S(=O)(=O)C1CC1 (atropisomer, axis not shown; (aR)) [Example 4, N—((S)-1-((R)-4-(4-chloro-3-(cyclopropylsulfonamide)-1-(2,2,2-trifluoroethyl)-1H-indazol-7-yl)-1-(3-(cyclopropylsulfonyl)-3-methyl-but-1-yn-1-yl)-6,7-dihydro-5H-cyclopenta [c]pyridin-3-yl)-2-(3,5-difluorophenyl)ethyl)-2-((3bS,4aR)-5,5-difluoro-3-(trifluoromethyl)-3b,4,4a,5-tetrahydro-1H-cyclopropa[3,4]cyclopenta[1,2-c]pyrazol-1-1)acetamide] | 68 | 91 | – | –
4 | CC(C)(C#Cc1nc([C@H](Cc2cc(F)cc(F)c2)NC(=O)Cn2nc(C(F)(F)F)c3c2C(F)(F)[C@@H]2C[C@H]32)c(-c2ccc(Cl)c3c(NS(C)(=O)=O)nn(CC(F)(F)F)c23)c2ccccc12)S(C)(=O)=O (atropisomer, axis not shown; (aR)) [Example 6, N—((S)-1-((R)-4-(4-chloro-3-(methanesulfonamido)-1-(2,2,2-trifluoroethyl)-1H-indazol-7-yl)-1-(3-methyl-3-(methanesulfonyl)but-1-yn-1-yl)isoquinolin-3-yl)-2-(3,5-difluorophenyl)ethyl)-2-((3bS,4aR)-5,5-difluoro-3-(trifluoromethyl)-3b,4,4a,5-tetrahydro-1H-cyclopropa[3,4]cyclopenta[1,2-c]pyrazol-1-yl)acetamide] | 107 | 75 | – | –
5 | CC(C)(C#Cc1nc([C@H](Cc2cc(F)cc(F)c2)NC(=O)Cn2nc(C(F)(F)F)c3c2C(F)(F)[C@@H]2C[C@H]32)c(-c2ccc(Cl)c3c(NS(C)(=O)=O)nn(CC(F)(F)F)c23)c2c1CCCC2)S(C)(=O)=O (single isomer, unassigned) [Example 5-1] | 37 | 108 | stable single-configuration compound | stable single-configuration compound
